Measured values from PMC4503722, “Novel Phenotypic Outcomes Identified for a Public Collection of Approved Drugs from a Publicly Accessible Panel of Assays” (PLoS ONE, 2015).
Where two headings read alike, the source gives them in different places.

What was measured:
INS-1E cells = test: cells; format: cell-based, rat
[1] = test system: panel of 7 colon cancer cell lines; test: KRAS/Wnt synthetic lethal module: selectivity ratios across the colon cancer cell line panel (sub-modules); format: cell-based
RKO = test: cells; format: cell-based; conditions: Homo sapiens, RKO
HeLa cells = test: cells; format: cell-based; conditions: Homo sapiens, HeLa, read-out: CellCycle G2/M
NCI-H716 cells = test: cells; format: cell-based, Human; conditions: Homo sapiens
hp70S6K1 (RPS6KB1) = biological target: T1, hp70S6K1 (RPS6KB1) (Homo sapiens, UniProt P23443); test: Cerep LANCE kinase assay hp70S6K1 (S1 assay 31); format: biochemical; conditions: kinase assay; read-out: p70S6K1
T1 construct: purchased Cerep (LANCE kinase assay platform, contract assay)
T1 sequence (P23443 whole entry): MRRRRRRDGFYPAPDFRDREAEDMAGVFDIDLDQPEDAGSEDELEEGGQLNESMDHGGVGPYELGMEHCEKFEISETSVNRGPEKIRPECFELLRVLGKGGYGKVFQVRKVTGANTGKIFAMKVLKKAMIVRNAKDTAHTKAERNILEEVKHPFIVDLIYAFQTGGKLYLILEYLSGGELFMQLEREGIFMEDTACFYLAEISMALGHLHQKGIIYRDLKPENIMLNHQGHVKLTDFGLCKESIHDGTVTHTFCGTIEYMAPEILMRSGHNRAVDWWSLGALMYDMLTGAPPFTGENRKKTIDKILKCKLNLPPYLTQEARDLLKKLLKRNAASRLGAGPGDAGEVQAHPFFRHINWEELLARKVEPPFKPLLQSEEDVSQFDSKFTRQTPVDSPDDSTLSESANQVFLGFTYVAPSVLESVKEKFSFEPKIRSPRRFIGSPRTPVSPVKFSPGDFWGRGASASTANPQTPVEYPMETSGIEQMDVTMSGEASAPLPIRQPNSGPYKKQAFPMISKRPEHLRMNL

[2] = test system: endothelial tube formation in co-cultures of ECFCs and ADSCs treated with VEGF; test: cells; format: cell-based, human; conditions: Homo sapiens
HT-29 = test: cells; format: cell-based; conditions: Homo sapiens
SW480 = test: cells; format: cell-based; conditions: Homo sapiens
DLD-1 = test: cells; format: cell-based; conditions: Homo sapiens
hFLT3 = biological target: T2, hFLT3 (Homo sapiens, UniProt P36888); test: Cerep LANCE kinase assay hFLT3 (S1 assay 35); format: biochemical; conditions: kinase assay; read-out: FLT3
T2 construct: purchased Cerep (LANCE kinase assay platform, contract assay)
T2 sequence (P36888 27-993): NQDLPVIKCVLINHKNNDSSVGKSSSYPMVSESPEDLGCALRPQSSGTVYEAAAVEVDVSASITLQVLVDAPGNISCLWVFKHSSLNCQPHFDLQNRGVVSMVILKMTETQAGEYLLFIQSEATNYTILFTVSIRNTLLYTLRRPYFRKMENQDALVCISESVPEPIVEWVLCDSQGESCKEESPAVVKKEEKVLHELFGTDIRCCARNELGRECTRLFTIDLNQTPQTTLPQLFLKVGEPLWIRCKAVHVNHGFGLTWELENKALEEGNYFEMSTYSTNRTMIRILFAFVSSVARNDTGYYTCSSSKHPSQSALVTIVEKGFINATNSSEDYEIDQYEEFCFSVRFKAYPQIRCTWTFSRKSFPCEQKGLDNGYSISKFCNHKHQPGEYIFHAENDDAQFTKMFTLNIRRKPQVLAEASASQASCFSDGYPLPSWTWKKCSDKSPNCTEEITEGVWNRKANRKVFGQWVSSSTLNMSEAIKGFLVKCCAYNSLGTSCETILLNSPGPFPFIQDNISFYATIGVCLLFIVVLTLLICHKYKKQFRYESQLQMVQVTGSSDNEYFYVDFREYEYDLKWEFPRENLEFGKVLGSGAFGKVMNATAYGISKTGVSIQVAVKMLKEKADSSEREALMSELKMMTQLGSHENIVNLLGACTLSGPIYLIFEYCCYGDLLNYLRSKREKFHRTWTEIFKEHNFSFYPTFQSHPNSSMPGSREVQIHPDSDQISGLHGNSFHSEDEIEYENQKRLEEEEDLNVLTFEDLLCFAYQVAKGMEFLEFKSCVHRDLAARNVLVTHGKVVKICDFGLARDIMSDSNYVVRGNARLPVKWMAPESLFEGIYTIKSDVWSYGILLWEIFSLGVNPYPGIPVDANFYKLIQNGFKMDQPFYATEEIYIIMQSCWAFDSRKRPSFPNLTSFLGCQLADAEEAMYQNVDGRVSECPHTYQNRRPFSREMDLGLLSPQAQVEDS

hKDR = biological target: T3, hKDR (Homo sapiens, UniProt P35968); test: Cerep LANCE kinase assay hKDR (S1 assay 32); format: biochemical; conditions: kinase assay; read-out: KDR
T3 construct: purchased Cerep (LANCE kinase assay platform, contract assay)
T3 sequence (P35968 20-1356): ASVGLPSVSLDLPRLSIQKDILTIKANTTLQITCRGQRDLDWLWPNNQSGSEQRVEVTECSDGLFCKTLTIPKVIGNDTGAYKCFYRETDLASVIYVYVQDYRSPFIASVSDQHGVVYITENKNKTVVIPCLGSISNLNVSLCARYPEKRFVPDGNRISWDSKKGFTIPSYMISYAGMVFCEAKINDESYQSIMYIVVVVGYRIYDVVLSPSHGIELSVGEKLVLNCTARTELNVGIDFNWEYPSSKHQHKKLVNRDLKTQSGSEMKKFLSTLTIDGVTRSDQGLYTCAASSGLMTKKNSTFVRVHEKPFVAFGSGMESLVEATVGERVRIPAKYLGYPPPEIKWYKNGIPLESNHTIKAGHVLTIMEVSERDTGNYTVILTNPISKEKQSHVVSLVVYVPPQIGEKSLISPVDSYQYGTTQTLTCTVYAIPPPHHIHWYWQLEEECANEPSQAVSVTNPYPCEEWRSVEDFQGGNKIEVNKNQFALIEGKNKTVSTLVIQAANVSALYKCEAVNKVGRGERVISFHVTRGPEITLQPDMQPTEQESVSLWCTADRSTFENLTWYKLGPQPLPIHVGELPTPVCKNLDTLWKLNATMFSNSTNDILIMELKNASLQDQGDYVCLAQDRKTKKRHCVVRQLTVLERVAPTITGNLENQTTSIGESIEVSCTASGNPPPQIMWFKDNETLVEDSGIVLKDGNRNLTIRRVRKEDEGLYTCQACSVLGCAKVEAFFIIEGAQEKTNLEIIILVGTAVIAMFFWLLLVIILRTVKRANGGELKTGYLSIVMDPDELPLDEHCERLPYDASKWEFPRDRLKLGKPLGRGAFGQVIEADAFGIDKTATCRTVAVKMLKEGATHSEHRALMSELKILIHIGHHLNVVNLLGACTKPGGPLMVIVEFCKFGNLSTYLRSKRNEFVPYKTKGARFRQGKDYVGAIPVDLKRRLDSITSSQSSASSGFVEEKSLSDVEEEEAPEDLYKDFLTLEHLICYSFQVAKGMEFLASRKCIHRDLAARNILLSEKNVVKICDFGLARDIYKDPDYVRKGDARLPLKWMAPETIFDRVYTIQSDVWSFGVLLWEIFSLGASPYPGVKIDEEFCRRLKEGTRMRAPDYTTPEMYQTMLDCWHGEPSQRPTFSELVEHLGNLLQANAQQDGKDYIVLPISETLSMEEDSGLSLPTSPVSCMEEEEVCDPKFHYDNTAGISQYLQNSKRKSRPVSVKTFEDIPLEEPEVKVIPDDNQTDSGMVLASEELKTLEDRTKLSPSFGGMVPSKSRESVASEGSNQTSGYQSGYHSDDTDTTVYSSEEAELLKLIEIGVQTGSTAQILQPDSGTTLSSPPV

Colo320 = test: cells; format: cell-based; conditions: Homo sapiens
[3] = test system: nuclear β-catenin in C2C12 cells; test: cells; format: cell-based; conditions: Mus musculus
HCT116 = test: cells; format: cell-based; conditions: Homo sapiens
[4] = test system: HCT116 cells treated with a GSK3β inhibitor; test: cells; format: cell-based; conditions: Homo sapiens
hGSK3b = biological target: T4, hGSK3b (Homo sapiens, UniProt P49841); test: Cerep LANCE kinase assay hGSK3b (S1 assay 34); format: biochemical; conditions: kinase assay; read-out: GSK3b
T4 construct: purchased Cerep (LANCE kinase assay platform, contract assay)
T4 sequence (P49841 whole entry): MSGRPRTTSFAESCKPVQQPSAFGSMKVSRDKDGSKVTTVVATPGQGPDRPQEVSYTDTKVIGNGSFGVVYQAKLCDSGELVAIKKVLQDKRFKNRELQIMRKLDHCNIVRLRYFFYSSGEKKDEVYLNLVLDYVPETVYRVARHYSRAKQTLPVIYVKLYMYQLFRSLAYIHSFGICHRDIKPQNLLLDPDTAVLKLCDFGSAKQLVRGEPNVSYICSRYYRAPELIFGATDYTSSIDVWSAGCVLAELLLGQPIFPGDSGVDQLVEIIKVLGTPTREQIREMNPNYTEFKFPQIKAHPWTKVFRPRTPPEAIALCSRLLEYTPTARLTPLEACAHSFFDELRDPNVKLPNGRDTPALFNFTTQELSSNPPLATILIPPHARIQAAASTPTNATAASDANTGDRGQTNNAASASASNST

SNU-C1 = test: cells; format: cell-based; conditions: Homo sapiens
hJAK2 = biological target: T5, hJAK2 (Homo sapiens, UniProt O60674); test: Cerep LANCE kinase assay hJAK2 (S1 assay 33); format: biochemical; conditions: kinase assay; read-out: JAK2
T5 construct: purchased Cerep (LANCE kinase assay platform, contract assay)
T5 sequence (O60674 whole entry): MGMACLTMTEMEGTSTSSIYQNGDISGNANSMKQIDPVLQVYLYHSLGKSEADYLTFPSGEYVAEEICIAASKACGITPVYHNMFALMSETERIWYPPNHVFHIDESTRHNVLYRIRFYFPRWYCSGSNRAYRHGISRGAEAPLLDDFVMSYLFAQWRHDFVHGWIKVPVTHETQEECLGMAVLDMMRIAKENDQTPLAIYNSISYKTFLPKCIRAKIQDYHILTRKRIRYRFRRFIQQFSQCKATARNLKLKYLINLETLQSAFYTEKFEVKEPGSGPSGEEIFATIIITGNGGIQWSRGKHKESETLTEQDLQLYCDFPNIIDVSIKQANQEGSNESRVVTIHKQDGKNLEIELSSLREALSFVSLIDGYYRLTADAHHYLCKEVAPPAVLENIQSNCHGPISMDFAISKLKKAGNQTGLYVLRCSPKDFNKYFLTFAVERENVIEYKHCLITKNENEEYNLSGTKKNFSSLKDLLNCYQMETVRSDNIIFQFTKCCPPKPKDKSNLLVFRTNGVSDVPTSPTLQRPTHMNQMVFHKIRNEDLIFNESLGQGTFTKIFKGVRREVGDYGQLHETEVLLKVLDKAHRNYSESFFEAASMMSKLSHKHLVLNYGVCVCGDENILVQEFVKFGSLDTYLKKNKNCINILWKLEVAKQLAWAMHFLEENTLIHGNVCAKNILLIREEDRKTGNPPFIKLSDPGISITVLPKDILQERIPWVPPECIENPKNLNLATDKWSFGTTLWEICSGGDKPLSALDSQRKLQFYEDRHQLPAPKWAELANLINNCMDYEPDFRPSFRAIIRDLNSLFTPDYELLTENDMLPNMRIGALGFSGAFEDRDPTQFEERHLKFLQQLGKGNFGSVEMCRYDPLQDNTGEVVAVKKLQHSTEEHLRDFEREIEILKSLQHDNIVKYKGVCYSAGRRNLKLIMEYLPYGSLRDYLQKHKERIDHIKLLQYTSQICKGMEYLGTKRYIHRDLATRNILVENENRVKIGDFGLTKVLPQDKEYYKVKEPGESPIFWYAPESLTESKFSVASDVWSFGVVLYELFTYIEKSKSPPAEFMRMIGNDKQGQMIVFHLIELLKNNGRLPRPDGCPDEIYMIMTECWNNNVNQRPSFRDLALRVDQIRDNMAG

[5] = test system: ECFC/ADSC co-culture cell nuclei number; conditions: human
SUR2/Kir6.2 = conditions: read-out: SUR2/Kir6.2 inhibition IC50; cited from earlier work
[6] = test system: tonic K+ channel activity in INS-1E cells; test: cells; format: cell-based, rat; conditions: Rattus norvegicus, INS-1E, read-out: K+ channel assay IC50
[7] = FAERS, ref [45], cited from earlier work; for Adjusted Z-Score: Drug A with vs without methotrexate; for # of Specific AE Occurrence With Drug A With Drug B: with methotrexate; for # of Specific AE Occurrence With Drug A Without Drug B: without methotrexate
[8] = Rattus norvegicus, INS-1E, read-out: Ins. sec. EC50
[9] = NCI-H716, read-out: GLP1 sec. EC50
[10] = SW480, 72 h, read-out: SW480 viab. IC50
[11] = DLD-1, 72 h, read-out: DLD-1 viab. IC50
[12] = HCT-116, 72 h, read-out: HCT-116 viab. IC50
[13] = HCT-116, 72 h, read-out: HCT-116 (GSK3β) viab. IC50

Question: Which EC50 (INS-1E cells; [8]) does the source give for COCc1c(C(C)C)nc(C(C)C)c(/C=C/[C@@H](O)C[C@@H](O)CC(=O)O)c1-c1ccc(F)cc1 [cerivastatin, reference compound] here?
Answer: > 10000 nM

Question: And the “fold potency difference KRAS mutant lines SW480 and HCT116 vs. KRAS wild-type lines Colo320 and SNU-C1” value [1]?
Answer: 5–10 fold

Question: And the IC50 (RKO; 72 h, read-out: RKO viab. IC50)?
Answer: 1000 nM

Question: And the IC50 (RKO; read-out: Basal_Viability ATP RKO)?
Answer: 1010 nM

Question: And the EC50 (HeLa cells)?
Answer: > 10000 nM

Question: What about the EC50 (NCI-H716 cells; [9]) of the same compound?
Answer: > 10000 nM

Question: And the IC50 (hp70S6K1 (RPS6KB1))?
Answer: > 20000 nM

Question: What about the IC50 ([2]; read-out: Anti-Angio IC50) of the same compound?
Answer: 89 nM

Question: And the IC50 ([2]; read-out: Anti-Angiogenesis)?
Answer: 89.4 nM

Question: What about the IC50 (HT-29; HT-29, 72 h, read-out: HT-29 viab. IC50) of the same compound?
Answer: 1200 nM

Question: What about the IC50 (HT-29; HT-29, read-out: Basal_Viability ATP HT-29) of the same compound?
Answer: 1210 nM

Question: And the IC50 (SW480; [10])?
Answer: 140 nM

Question: And the IC50 (SW480; SW480, read-out: Basal_Viability ATP SW480)?
Answer: 143 nM

Question: And the IC50 (DLD-1; [11])?
Answer: 2500 nM

Question: And the IC50 (DLD-1; DLD-1, read-out: Basal_Viability ATP DLD-1)?
Answer: 2510 nM

Question: And the IC50 (hFLT3)?
Answer: > 20000 nM

Question: What about the IC50 (hKDR) of the same compound?
Answer: > 20000 nM

Question: What about the IC50 (Colo320; COLO 320, 72 h, read-out: Colo320 viab. IC50) of the same compound?
Answer: 1900 nM

Question: What about the IC50 (Colo320; COLO 320, read-out: Basal_Viability ATP Colo 320) of the same compound?
Answer: 1920 nM

Question: What about the EC50 ([3]; C2C12, read-out: Wnt pot. EC50) of the same compound?
Answer: 19900 nM

Question: What about the IC50 (HCT116; [12]) of the same compound?
Answer: 240 nM

Question: And the IC50 (HCT116; HCT-116, read-out: Basal_Viability ATP HCT116)?
Answer: 240 nM

Question: What about the IC50 [4, 13] of the same compound?
Answer: 53 nM

Question: What about the IC50 ([4]; HCT-116, read-out: GSK3b inh pretreated_Viability ATP HCT116) of the same compound?
Answer: 52.9 nM

Question: And the IC50 (hGSK3b)?
Answer: > 20000 nM

Question: What about the IC50 (SNU-C1; SNU-C1, 72 h, read-out: SNU-C1 viab. IC50) of the same compound?
Answer: 1900 nM

Question: And the IC50 (SNU-C1; SNU-C1, read-out: Basal_Viability ATP SNU-C1)?
Answer: 1870 nM

Question: What about the IC50 (hJAK2) of the same compound?
Answer: > 20000 nM

Question: And the “cytotoxicity IC50 relative to IC50 for inhibition of endothelial cord formation” value [5]?
Answer: 2–3 fold

Question: With CCCNCC(O)COc1ccccc1C(=O)CCc1ccccc1 (stereo not drawn) [propafenone, reference compound] as the compound, how does the EC50 (INS-1E cells; [8]) read?
Answer: 4900 nM

Question: What about the EC50 (INS-1E cells; Rattus norvegicus, INS-1E, read-out: Insulin Secretion) of the same compound?
Answer: 4920 nM

Question: And the EC50 (HeLa cells)?
Answer: > 10000 nM

Question: And the EC50 (NCI-H716 cells; [9])?
Answer: > 10000 nM

Question: And the IC50 ([2]; read-out: Anti-Angio IC50)?
Answer: > 10000 nM

Question: And the IC50 (SUR2/Kir6.2)?
Answer: 2200 nM

Question: And the IC50 (SW480; [10])?
Answer: > 20000 nM

Question: And the IC50 (DLD-1; [11])?
Answer: > 20000 nM

Question: And the IC50 [6]?
Answer: 5400 nM

Question: What about the IC50 (HCT116; [12]) of the same compound?
Answer: > 20000 nM

Question: What about the IC50 [4, 13] of the same compound?
Answer: > 20000 nM

Question: For N[C@@H](Cc1ccc(N(CCCl)CCCl)cc1)C(=O)O [Melphalan], which EC50 (INS-1E cells; Rattus norvegicus, INS-1E; read-out: Insulin Secretion) is on record?
Answer: > 10000 nM

Question: And the EC50 (HeLa cells; S2 Table, 20 = no response at highest concentration)?
Answer: 5360 nM

Question: And the EC50 (NCI-H716 cells; NCI-H716, read-out: GLP 1 Secretion)?
Answer: > 10000 nM

Question: What about the IC50 (SW480; basal, SW480, read-out: Basal_Viability ATP SW480) of the same compound?
Answer: > 20000 nM

Question: What about the IC50 (DLD-1; basal, DLD-1, read-out: Basal_Viability ATP DLD-1) of the same compound?
Answer: > 20000 nM

Question: And the EC50 ([3]; C2C12, read-out: Wnt Pathway)?
Answer: > 10000 nM

Question: And the IC50 (HCT116; HCT-116, basal, HCT116, read-out: Basal_Viability ATP HCT116)?
Answer: > 20000 nM

Question: What about the IC50 ([4]; HCT-116, HCT116 pretreated with GSK3b inhibitor, read-out: GSK3b inh pretreated_Viability ATP HCT116) of the same compound?
Answer: 15400 nM

Question: What about the “Adjusted Z-Score” value ([7]; AE BONE DISORDER) of the same compound?
Answer: -3.0915

Question: What about the “# of Specific AE Occurrence With Drug A With Drug B” value ([7]; AE BONE DISORDER) of the same compound?
Answer: 0

Question: What about the “# of Specific AE Occurrence With Drug A Without Drug B” value ([7]; AE BONE DISORDER) of the same compound?
Answer: 731

Question: What about the “Adjusted Z-Score” value ([7]; AE OSTEOMYELITIS) of the same compound?
Answer: -3.729

Question: What about the “# of Specific AE Occurrence With Drug A With Drug B” value ([7]; AE OSTEOMYELITIS) of the same compound?
Answer: 9

Question: What about the “# of Specific AE Occurrence With Drug A Without Drug B” value ([7]; AE OSTEOMYELITIS) of the same compound?
Answer: 479

Question: And the “Adjusted Z-Score” value ([7]; AE OSTEONECROSIS OF JAW)?
Answer: -3.716

Question: And the “# of Specific AE Occurrence With Drug A With Drug B” value ([7]; AE OSTEONECROSIS OF JAW)?
Answer: 17

Question: And the “# of Specific AE Occurrence With Drug A Without Drug B” value ([7]; AE OSTEONECROSIS OF JAW)?
Answer: 557

Question: What about the “Adjusted Z-Score” value ([7]; AE OSTEONECROSIS) of the same compound?
Answer: -3.771

Question: What about the “# of Specific AE Occurrence With Drug A With Drug B” value ([7]; AE OSTEONECROSIS) of the same compound?
Answer: 1

Question: What about the “# of Specific AE Occurrence With Drug A Without Drug B” value ([7]; AE OSTEONECROSIS) of the same compound?
Answer: 786
